pIC50: −log10 of the molar value.
biological target: Serine/threonine-protein kinase pim-1 (Homo sapiens, UniProt P11309); assay: Solid-Phase ELISA Kinase Assay; settings: pH 7; 30 °C
Experimental: The 96-well flat-bottomed plates were coated with recombinant GST-BAD. After the plates were blocked, the reaction buffer containing test compound and recombinant GST-PIM1 kinase were added to each well. Phosphorylated GST-BAD was detected by an ELISA reaction. The level of phosphorylated GST-BAD present was proportional to the absorbance at 450 nm. Curve fitting and enzyme analyses were done using GraphPad Prism version 4.00 (GraphPad Software, San Diego, CA).

Serine/threonine-protein kinase pim-1, sequence (P11309 whole entry): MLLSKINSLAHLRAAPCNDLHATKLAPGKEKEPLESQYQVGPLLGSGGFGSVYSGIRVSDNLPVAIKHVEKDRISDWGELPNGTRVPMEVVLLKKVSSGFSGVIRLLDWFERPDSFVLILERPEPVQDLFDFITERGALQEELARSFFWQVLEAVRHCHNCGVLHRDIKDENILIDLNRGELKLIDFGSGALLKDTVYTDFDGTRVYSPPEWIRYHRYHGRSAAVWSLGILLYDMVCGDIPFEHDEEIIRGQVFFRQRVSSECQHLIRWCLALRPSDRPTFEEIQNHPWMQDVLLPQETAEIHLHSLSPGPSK

SMILES	pIC50
O=c1cc(-c2ccc(O)cc2)oc2c(O)c(O)ccc12	4.66
O=C1C[C@@H](c2ccccc2)Oc2cc(O)cc(O)c21	3.97
O=c1cc(-c2ccc(O)cc2)oc2cc(O)cc(O)c12 [Naringenin, 18]	6.03
O=c1cc(-c2ccc(O)c(O)c2)oc2cc(O)cc(O)c12 [2-(3,4-dihydroxyphenyl)-5,7-dihydroxy-4H-chromen-4-one]	5.80
O=c1cc(-c2ccccc2)oc2cc(O)ccc12 [7-Hydroxy-flavone, 5a]	4.85
O=c1c(O)c(-c2ccc(O)cc2O)oc2cc(O)cc(O)c12 [2-(2,4-dihydroxyphenyl)-3,5,7-trihydroxychromen-4-one]	5.57
O=c1c(O)c(-c2ccc(O)c(O)c2)oc2c(O)c(O)cc(O)c12	6.37
O=C1C[C@H](c2ccccc2)Oc2cc(O)cc(O)c21 [(2R)-5,7-dihydroxy-2-phenyl-3,4-dihydro-2H-1-benzopyran-4-one]	4.22
CC(C)=CCc1c(O)cc(O)c2c1O[C@H](c1ccccc1)CC2=O [(2S)-5,7-dihydroxy-8-(3-methylbut-2-en-1-yl)-2-phenyl-3,4-dihydro-2H-1-benzopyran-4-one]	4.90
O=c1cc(-c2cccc(O)c2)oc2cc(O)ccc12 [7-hydroxy-2-(3-hydroxyphenyl)-4H-chromen-4-one]	5.34
O=c1cc(-c2ccccc2)oc2cc(O)cc(O)c12 [5,7-dihydroxy-2-phenyl-4H-chromen-4-one]	4.82
O=c1c(O)c(-c2cc(O)c(O)c(O)c2)oc2cc(O)cc(O)c12	6.11

Next, values leading:

pIC50	SMILES
5.34	O=c1c(O)c(-c2ccccc2)oc2cc(O)ccc12 [3,7-dihydroxy-2-phenyl-4H-chromen-4-one]
5.08	O=c1c(O)c(-c2ccc(O)cc2O)oc2ccc(O)cc12 [2-(2,4-dihydroxyphenyl)-3,6-dihydroxy-4H-chromen-4-one]
5.89	O=c1c(O)c(-c2ccc(O)cc2)oc2cc(O)cc(O)c12
6.01	O=c1c(O)c(-c2ccc(O)cc2)oc2cc(O)ccc12 [3,7-dihydroxy-2-(4-hydroxyphenyl)-4H-chromen-4-one]
5.11	O=c1cc(-c2cc(O)c(O)c(O)c2)oc2cc(O)ccc12 [7-hydroxy-2-(3,4,5-trihydroxyphenyl)-4H-chromen-4-one]
6.07	O=c1c(O)c(-c2ccc(O)c(O)c2)oc2cc(O)ccc12 [2-(3,4-dihydroxyphenyl)-3,7-dihydroxy-chromen-4-one]
